Measured values: patent US12324800B2 (priority 2019, dated 2025)

Key:
[1] = set-up: key to Phase preferences, Physiological conditions: L, Lamellar; HII, hexagonal; M, micellar; conditions: liquid crystalline unsaturated lipids, cited from earlier work; for Phase preferences, Other conditions: conditions given in the cell
[2] = Rancimat accelerated oxidation test; format: physicochemical
Method: To investigate this, accelerated oxidation tests of cannabis oil in the labile soybean oil with and without additional antioxidants were conducted. The Rancimat (Metrohm MG, Herisau, Switzerland) test was used for this purpose as follows. 2 g of oil were placed in a narrow glass flask, heated to 110° C. and air was bubbled through the oil at 20 ml/min. This caused accelerated oxidation. As the liquid oxidized, volatile secondary oxidation products were volatilized and bubbled into room temperature water. This caused them to dissolve in the water, which results in an increase in its electrical conductivity. The conductivity is measured continuously using a standard electrode.

[3] = THC degradation on heating of cannabis oil films (gas-liquid chromatography); conditions: dry films with 14 mg cannabis oil, 1.5 hours at 100° C.
Method: Five 1 ml chromatography glass vials were used for this purpose. […] Stock solutions of 0.5% sunflower lecithin (Sunlec25), 0.01% TBHQ and 0.5% lecithin+0.01% TBHQ were prepared.
The chloroform was evaporated under a stream of air until completely dry. […] After the heating period, samples were removed from the oven, allowed to cool to room temperature and then 1 ml of fresh chloroform was added to each vial and capped. Samples were then analyzed by gas-liquid chromatography as described previously. […] A 15 m×0.25 mm internal diameter fused silica column with a 0.20 μm DB5 film thickness was used (Agilent Inc., USA). The oven temperature was maintained at 80° C. for 5 minutes and then programmed to increase from 80 to 300° C. at 12° C./min. […] Split ratio was set at 10:1. Helium, the earlier gas, flowed at an average velocity of 25 cm/s. A flame ionization detector was set at 350° C. with 450 mL/min air and 50 mL/min helium flowing. The separated peaks were analyzed using Open LAB software (Agilent Technologies). The amount of cannabinoid was determined by comparing retention times of the peaks to an internal standard. Tor this analysis, the main THC peak was analyzed.

| Compound | Phase preferences, Other conditions [1] | Phase preferences, Physiological conditions [1] | also measured |
| --- | --- | --- | --- |
| CC(C)CCC[C@@H](C)[C@H]1CC[C@H]2[C@@H]3CC=C4C[C@@H](O)CC[C@]4(C)[C@H]3CC[C@]12C [Cholesterol, cholesterol, reference compound] | Induces HII phase in mixed | – | – |
| CC(C)(C)c1cc(O)ccc1O [TBHQ, tert-butylhydroquinone] | – | – | increase of induction time ([2]; 0.01% TBHQ added to soybean oil alone): 7.1 h; induction time of oxidation ([2]; 0.01% TBHQ added to soybean oil containing 4.8 mg/g cannabis oil): 15.7 h; induction time of oxidation ([2]; 0.01% TBHQ added to soybean oil containing 0.5% sunflower lecithin and 4.8 mg/g cannabis oil): 28.8 h; increase of induction time of oxidation for every 100 ppm TBHQ added ([2]; soybean oil, 110° C.): 7.1 to 7.2 h |
| CCCCCc1cc(O)c2c(c1)OC(C)(C)[C@@H]1CCC(C)=C[C@@H]21 [THC, tetrahydrocannabinol] | – | – | degradation of THC on heating [3]: significant degradation |
| Cardiolipin | HII, divalent cations, | L | – |
| Cerebroside | – | L | – |
| Cerebroside sulfate | – | L | – |
| Digalactosyldiglyceride | – | L | – |
| Diglucosyldiglyceride | – | L | – |
| Ganglioside | – | M | – |
| Lysophosphatidylcholine | – | M | – |
| Monogalactosyldiglyceride | – | HII | – |
| Monoglucosyldiglyceride | – | HII | – |
| Phosphatidic acid | HII, divalent cations, | L | – |
| Phosphatidylcholine | HII low hydration and high | L | – |
| Phosphatidylethanolamine | L, pH ≥ 8.5 low temp | HII | – |
| Phosphatidylglycerol | HII, high temp, high salt conc. | L | – |
| Phosphatidylinositol | – | L | – |
| Phosphatidylserine | HII, pH ≤ 3.5 | L | – |
| Sphingomyelin | – | L | – |
